# Data taken from PubChem BioAssay AID1259411 (Chemical Carcinogenesis Research Information System (CCRIS), 2018).
# The source made the active and inactive calls. The rule behind the calls is not given here.
# Test system: rodent carcinogenicity bioassays, tumor incidence
# Test: CCRIS carcinogenicity studies
# Details: Dose: 0
# Procedure, shortened: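 Archive of carcinogenicity, mutagenicity, tumor promotion and tumor inhibition results drawn from journals, NCI reports and other sources, expert-reviewed; covers 1985-2011 and is no longer updated.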
compound,measurement,setting,value
C=CC#N,carcinogen call,"Species: RAT, Strain/Sex: SPRAGUE-DAWLEY/FEMALE, Route: GAVAGE, 5 MG/KG IN OLIVE OIL 1/D 3 D/WK FOR 52 WK (STUDY DURATION: LIFETIME)",inactive; negative
same,carcinogen call,"Species: RAT, Strain/Sex: SPRAGUE-DAWLEY/FEMALE, Route: INHALATION, 60 PPM 4 HR/D 5 D/WK FOR 7 WK THEN 7 HR/D 5 D/WK FOR 8 WK ADMINISTRATION STARTED WITH EMBRYOS ON 12TH DAY OF GESTATIO",inactive; negative
same,carcinogen call,"Species: RAT, Strain/Sex: SPRAGUE-DAWLEY/FEMALE, Route: INHALATION, 60 PPM 4 HR/D 5 D/WK FOR 7 WK THEN 7 HR/D 5 D/WK FOR 97 WK ADMINISTRATION STARTED WITH EMBRYOS ON DAY 12 OF GESTATION, Tumor Site: Type of Lesion: MAMMARY GLAND: TUMORS, LIVER: ANGIOSARCOMA, BRAIN: GLIOMA, Tumor Site: Type of Lesion: MAMMARY GLAND: TUMORS, LIVER: ANGIOSARCOMA, BRAIN: GLIOMA",active; positive
same,carcinogen call,"Species: RAT, Strain/Sex: SPRAGUE-DAWLEY/FEMALE, Route: ORAL, 1, 100 PPM IN DRINKING WATER FOR 22 MO (STUDY DURATION: 20 MO), 1, 100 PPM IN DRINKING WATER FOR 22 MO (STUDY DURATION: 20 MO), Tumor Site: Type of Lesion: BRAIN: ASTROCYTOMA, ZYMBAL'S GLAND/EAR CANAL: ADENOMA OR CARCINOMA, FORESTOMACH: SQUAMOUS CELL PAPILLOMA/PAPILLOMA OR SQ, Tumor Site: Type of Lesion: BRAIN: ASTROCYTOMA, ZYMBAL'S GLAND/EAR CANAL: ADENOMA OR CARCINOMA, FORESTOMACH: SQUAMOUS CELL PAPILLOMA/PAPILLOMA OR SQ",active; positive
same,carcinogen call,"Species: RAT, Strain/Sex: SPRAGUE-DAWLEY/MALE, Route: GAVAGE, 0.1, 10 MG/KG/D 7D/WK FOR 20 MO (STUDY DURATION: 20 MO), 0.1, 10 MG/KG/D 7D/WK FOR 20 MO (STUDY DURATION: 20 MO), Tumor Site: Type of Lesion: BRAIN: ASTROCYTOMA, ZYMBAL'S GLAND/EAR CANAL: CARCINOMA, FORESTOMACH: SQUAMOUS CELL PAPILLOMA/PAPILLOMA, SQUAMOUS CELL C, Tumor Site: Type of Lesion: BRAIN: ASTROCYTOMA, ZYMBAL'S GLAND/EAR CANAL: CARCINOMA, FORESTOMACH: SQUAMOUS CELL PAPILLOMA/PAPILLOMA, SQUAMOUS CELL C",active; positive
same,carcinogen call,"Species: RAT, Strain/Sex: SPRAGUE-DAWLEY/MALE, Route: GAVAGE, 5 MG/KG BW IN OLIVE OIL 3/WK FOR 52 WK (STUDY DURATION: LIFETIME), Tumor Site: Type of Lesion: [BRAIN WAS ONLY SITE EVALUATED]",inactive; negative
same,carcinogen call,"Species: RAT, Strain/Sex: SPRAGUE-DAWLEY/MALE, Route: GAVAGE, 5 MG/KG IN OLIVE OIL 1/D 3 D/WK FOR 52 WK (STUDY DURATION: LIFETIME)",inactive; negative
same,carcinogen call,"Species: RAT, Strain/Sex: SPRAGUE-DAWLEY/MALE, Route: INHALATION, 60 PPM 4 HR/D 5 D/WK FOR 7 WK THEN 7 HR/D 5 D/WK FOR 8 WK ADMINISTRATION STARTED WITH EMBRYOS ON 12TH DAY OF GESTATIO",inactive; negative
same,carcinogen call,"Species: RAT, Strain/Sex: SPRAGUE-DAWLEY/MALE, Route: INHALATION, 60 PPM 4 HR/D 5 D/WK FOR 7 WK THEN 7 HR/D 5 D/WK FOR 97 WK ADMINISTRATION STARTED WITH EMBRYOS ON DAY 12 OF GESTATION, Tumor Site: Type of Lesion: ZYMBAL GLAND: CARCINOMA, LIVER: HEPATOMA, BRAIN: GLIOMA, Tumor Site: Type of Lesion: ZYMBAL GLAND: CARCINOMA, LIVER: HEPATOMA, BRAIN: GLIOMA",active; positive
same,carcinogen call,"Species: RAT, Strain/Sex: SPRAGUE-DAWLEY/MALE, Route: ORAL, 1, 100 PPM IN DRINKING WATER FOR 22 MO (STUDY DURATION: 20 MO), 1, 100 PPM IN DRINKING WATER FOR 22 MO (STUDY DURATION: 20 MO), Tumor Site: Type of Lesion: BRAIN: ASTROCYTOMA, ZYMBAL'S GLAND/EAR CANAL: ADENOMA OR CARCINOMA, FORESTOMACH: SQUAMOUS CELL PAPILLOMA/PAPILLOMA OR SQ, Tumor Site: Type of Lesion: BRAIN: ASTROCYTOMA, ZYMBAL'S GLAND/EAR CANAL: ADENOMA OR CARCINOMA, FORESTOMACH: SQUAMOUS CELL PAPILLOMA/PAPILLOMA OR SQ",active; positive
same,carcinogen call,"Species: RAT, Strain/Sex: SPRAGUE-DAWLEY/MALE, Route: ORAL, 20, 100, 500 PPM IN DRINKING WATER FOR DURATION OF STUDY (STUDY DURATION: 2 YR), 20, 100, 500 PPM IN DRINKING WATER FOR DURATION OF STUDY (STUDY DURATION: 2 YR), Tumor Site: Type of Lesion: ZYMBAL'S GLAND: TUMOR",active; positive
same,carcinogen call,"Species: Rat, Strain/Sex: Sprague Dawley/Female (80/group, Controls; 48/group, Experimental), Route: Oral, 35, 100, 300 ppm (0; 4.4; 10.8; 25.0 mg/kg) in drinking water for 2 yr, 35, 100, 300 ppm (0; 4.4; 10.8; 25.0 mg/kg) in drinking water for 2 yr, Tumor Site: Type of Lesion: Nervous system (brain and spinal cord): Combined focal or multifocal glial cell proliferation and/or astrocytoma (1/80",active; positive
same,carcinogen call,"Species: Rat, Strain/Sex: Sprague Dawley/Male (80/group, Controls; 48/group, Experimental), Route: Oral, 35, 100, 300 ppm (0; 3.4; 8.5; 21.3 mg/kg in drinking water for 2 yr), 35, 100, 300 ppm (0; 3.4; 8.5; 21.3 mg/kg in drinking water for 2 yr), Tumor Site: Type of Lesion: Nervous system (brain and spinal cord): Combined focal or multifocal glial cell proliferation and/or astrocytoma (1/80",active; positive
